“Also recorded” adds a separate entry of the source. Values belong to the molecule of their own block, whether it stands above or below them.
What was measured:
[1] = molecular target: T1, recombinant mouse A3 receptors (Mus musculus, UniProt Q61618); test: Radioligand competition binding to recombinant mouse A3 receptor (HEK293 membranes); conditions: high affinity conformational state, means ± SEM, at least six experiments, read-out: Binding affinity (Ki) A3R
T1 construct: expressed in transfected cells
T1 sequence (Q61618 1-319): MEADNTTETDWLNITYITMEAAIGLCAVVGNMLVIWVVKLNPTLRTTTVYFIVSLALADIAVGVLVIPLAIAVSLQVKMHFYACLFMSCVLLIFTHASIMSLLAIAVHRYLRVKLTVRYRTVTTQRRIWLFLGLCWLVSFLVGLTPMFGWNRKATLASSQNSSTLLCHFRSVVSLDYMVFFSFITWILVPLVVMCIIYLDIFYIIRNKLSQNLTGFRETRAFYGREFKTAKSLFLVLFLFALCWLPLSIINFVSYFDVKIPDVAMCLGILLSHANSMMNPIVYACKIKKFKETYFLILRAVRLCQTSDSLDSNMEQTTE
Description: Membranes from HEK293 cells stably expressing recombinant mouse A2ARs or A3Rs were used for competition binding assays with [^125I]N6-4-amino-3-iodobenzyladenosine for the A3AR or [^125I]2-[2-(4-amino-3-iodophenyl)ethylamino]adenosine for the A2AR as described previously (Lappas et al., 2005a). Radioligand binding experiments were performed with 25 μg of HEK293 cell membrane protein in a total volume of 0,1 ml of 10 MM HEPES with 1 mM EDTA (pH 7.4) supplemented with 2 Unit/ml adenosine deaminase and 5 mM MgCl2. Nonspecific binding was measured in the presence of 100 μM NECA. The incubation time was 120 min at room temperature. Membranes were filtered on Millipore MultiScreen 96-well filtration plates and washed three times with ice-cold buffer (10 mM Tris, 1 mM MgCl2, pH 7,4) using a Brandel 96-well plate washer. The data were fit to a four-parameter logistic equation. IC50 values were determined using GraphPad Prism, and Ki values calculated (Linden, 1982).
. It is important to note that unlike human receptors, in the mouse, the selectivity of all of these agonist compounds for the A2A over the A3 receptor is limited, and the administration of these compounds to mice is expected to produce some degree of A3 receptor activation. […]. Activation of the A3 receptor may exacerbate inflammation by enhancing the degranulation of rodent mast cells (Jin et al., 1997; Ramkumar et al., 1993, Reeves et al., 1997); although tissue protection by A3 receptor activation also has been noted (Rivo et al., 2004). […]

[2] = molecular target: T2, recombinant mouse A2A receptors (Mus musculus, UniProt Q60613); test: Radioligand competition binding to recombinant mouse A2A receptor (HEK293 membranes); conditions: for Ki: high affinity conformational state, recombinant mouse A2A receptor, means ± SEM, at least six experiments, read-out: Binding affinity (Ki) A2AR; for A3/A2A: ratio of Ki at mouse A3R to Ki at mouse A2AR
T2 construct: expressed in transfected cells
T2 sequence (Q60613 whole entry): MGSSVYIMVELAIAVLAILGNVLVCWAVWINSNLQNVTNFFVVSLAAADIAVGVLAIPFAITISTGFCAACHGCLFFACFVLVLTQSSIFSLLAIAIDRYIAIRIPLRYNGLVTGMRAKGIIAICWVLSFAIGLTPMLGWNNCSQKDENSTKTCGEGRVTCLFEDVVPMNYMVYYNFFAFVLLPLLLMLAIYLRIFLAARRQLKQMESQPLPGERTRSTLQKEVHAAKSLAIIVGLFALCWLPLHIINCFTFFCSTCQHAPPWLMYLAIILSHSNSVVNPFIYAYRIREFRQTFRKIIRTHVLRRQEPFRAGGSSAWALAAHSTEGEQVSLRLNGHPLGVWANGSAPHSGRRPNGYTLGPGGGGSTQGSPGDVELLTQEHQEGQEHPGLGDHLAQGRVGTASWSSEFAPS
Description: Nonspecific binding was measured in the presence of 100 μM NECA. The incubation time was 120 min at room temperature. Membranes were filtered on Millipore MultiScreen 96-well filtration plates and washed three times with ice-cold buffer (10 mM Tris, 1 mM MgCl2, pH 7,4) using a Brandel 96-well plate washer. The data were fit to a four-parameter logistic equation.

[3] = molecular target: recombinant human A2A receptors (Homo sapiens, UniProt P29274); conditions: recombinant human receptors (Rieger et al., 2001); cited from earlier work
recombinant human A2A receptors, sequence (P29274 whole entry): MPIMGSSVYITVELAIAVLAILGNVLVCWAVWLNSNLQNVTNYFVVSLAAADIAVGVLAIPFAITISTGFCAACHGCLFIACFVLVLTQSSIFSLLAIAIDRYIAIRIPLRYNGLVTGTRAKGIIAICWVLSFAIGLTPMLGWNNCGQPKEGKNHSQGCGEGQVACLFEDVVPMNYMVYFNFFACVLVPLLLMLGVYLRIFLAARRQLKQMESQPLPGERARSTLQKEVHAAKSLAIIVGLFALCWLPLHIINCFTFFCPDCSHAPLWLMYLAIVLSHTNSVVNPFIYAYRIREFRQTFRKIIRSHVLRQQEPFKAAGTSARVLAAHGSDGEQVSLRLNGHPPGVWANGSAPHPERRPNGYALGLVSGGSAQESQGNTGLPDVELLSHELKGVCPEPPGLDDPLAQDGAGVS

[4] = test system: spinal cord compression injury in bone marrow chimera mice; test: Spinal cord compression injury in bone marrow chimera and A2AR KO mice, locomotor assessment; format: in vivo, mouse
Description: Female mice 7-9 weeks of age were irradiated twice with 600 Rads separated by 4 hours. Bone marrow donor mice 12 weeks of age were sacrificed by a lethal injection of sodium pentobarbital. Bone marrow cells were harvested from femurs and tibia by flushing with RPMI-1640 medium (Invitrogen Corporation, Grand Island, N.Y.) in the presence of 10% heat-inhibited fetal bovine serum (FBS). Connective tissue and debris were carefully removed by washing and centrifuging. Red blood cells were lysed by 1× ZAP-OGLOBIN® II lytic Reagent (Beckman Coulter, Miami, Fla.). Recipient mice were anesthetized intraperitoneally with a mixture of 100 mg/ml ketamine and 20 mg/ml xylazine in saline solution. An aliquot of approximately 2×10^6 cells in 200 μl RPMI-1640 with 10% FBS was injected intravenously through left or right jugular vein. BMT mice were used for experiments after 6 weeks. We have previously shown that this procedure results in efficient repopulation of BMDC cells to irradiated mice (Day et al., 2005).

[5] = test system: spinal cord compression injury, locomotor function; test: Spinal cord compression injury, locomotor assessment (mBBB); conditions: for locomotor function (mBBB score) after spinal cord compression: wild type mice, IP from 5 min before compression, twice daily 4 days, days 1-42, FIG. 2
Description: Briefly, mice were anesthetized with a mixture of ketamine and xylazine and placed on a heating pad in a stereotaxic apparatus. A laminectomy was performed at T12 and two adjustable forceps were applied to the vertebra between T11 to T13 to stabilize the spinal cord. Ischemic injury was produced by gently placing a 15 gram compression rod with 1 mm×2 mm rectangular surface onto the intact durra for 5 minutes. […] Injured mice were assessed on post-SCI days 1, 4, 7, 14, 28, and 42. Sham animals received a laminectomy without spinal cord compression. Following SCI, bladders were expressed twice daily until return of normal bladder function.
Animals that were able to walk and scored greater than 14 based on rat BBB scoring criteria were further evaluated based on their ability to traverse steel bars without slipping. Mice were placed on bars 500 mm in length and 3 mm in thickness with decreasing widths: 20 mm (score 16), 15 mm (score 17), 10 mm (score 18), 7 mm (score 19), and 5 mm (score 20). […] Scores obtained from left and right hind limbs were averaged.
Statistical Analysis: Statistical analyses were conducted using SAS version 9.1 (SAS Institute Inc, Cary, N.C.). A mixed model (SAS Proc Mixed) was applied to determine the effect of drug treatment over time. Both the experimental condition (mouse genotype and/or drug) and the day were set as categorical variables. An autoregressive correlation structure was assumed for repeated measures in the entire study.

[6] = test system: spinal cord white matter / myelin after compression injury; test: Spinal cord histology and myelin quantification after compression injury; format: in vivo, mouse
Description: A section of spine between T10 and L1 was removed under anesthesia. The tissue was placed in 4.0% paraformaldehyde in phosphate buffered saline, pH 7.4, and rocked for 4 hours. The disc body, lamina, pedicle, spinous and transverse processes surrounding the cord were carefully removed and the cord trimmed to center the injured area in a 10 mm segment. After incubation at 4° C. overnight, tissues were washed in Dulbecco's phosphate buffered saline (PBS, pH 7.4) twice for 10 minutes, and transferred to cassettes in 70% ethanol for paraffin embedding. Five μm sections were collected at 500 μm intervals using a Leica RM2030 Rotary Microtome. Sections derived from the center of the 2 mm compression zone were stained with hematoxylin & eosin (HE) and eriochrome cyanine (EC) as described below. Slides were examined using an Olympus BX51 light microscope and photographed using an Olympus DP70 digital camera (4080×3072 pixels) with DP70-BSW-V1.2 Capture & Archiving Software.
Hematoxylin & Eosin (HE) Staining. Sections were deparaffinized at 37° C. twice each for 5 minutes in xylene, 100% ethanol, and 95% ethanol, then once for 5 minutes in 70% ethanol and twice for 5 minutes in dH2O. Slides were stained in filtered hematoxylin for 60 seconds and washed in tap water for 3 minutes, stained in Eosin Y for 30 seconds and washed in tap water for 3 minutes. After the slide was dehydrated to xylene, a coverslip was applied.
Eriochrome Cyanine (EC) Staining. The protocol for staining myelin was obtained from the NINDS Spinal Cord Injury Training Course 2004 (The Ohio State University, Columbus, Ohio) and used with minor modifications. […]
Spinal Cord Cross Sectional Area and Myelin Quantification. Total cross-sectional area was measured to determine the extent of spinal cord atrophy, Cross-sectional area stained with EC was calculated by image analysis to evaluate damage of the sagittal myelinated tracts. […] The loss in white matter of each sample was calculated as % of total area stained in respective areas of control samples.

[7] = test system: contusive spinal cord injury, locomotor function; test: Contusive spinal cord injury, locomotor assessment (mouse BBB); conditions: FIG. 13; for protection from contusive injury in Rag1 KO mice compared to Rag1 KO vehicle: Rag1 KO mice lacking mature lymphocytes
Description: Female C57BL/6 wild type and Rag-1 KO mice lacking mature lymphocytes between 6-18 weeks of age were purchased from Jackson Laboratory (Bar Harbor, Me.). Adenosine 2A receptor gene deletion (A2AAR −/−, A2AAR knockout) mice were age-matched to their wild types with same genomic background (C57BL/6). Food and water were provided ad libitum before and after experiments. During the experiment period, animals were housed in a pathogen-free isolation barrier region with chip bedding.
Animals were subjected to comtusive spinal cord injury protocol. Briefly, mice were anesthetized with a mixture of ketamine and xylazine and placed on a heating pad in a stereotaxic apparatus. A laminectomy was performed at T12 and two adjustable forceps were applied to the vertebra between T11 to T13 to stabilize the spinal cord. Contusive spinal cord injury (SCI) was produced with an IH device (PSI, Lexington, Ky.) at a defined force from 30 to 100 Kdynes with a dwell time of 30 msec or 60 sec. […] Injured mice were assessed on days 1, 2, 3, 4, 7, 10, 14, 21, 28, 35, and 42 after injury. Sham animals (n=10) received a laminectomy without spinal cord compression. Following SCI, bladders were expressed twice daily until return of normal reflexive bladder function.
Statistical tests were performed using GraphPad™ Prism version 5 software (GraphPad Software, Inc., San Diego, Calif.). Differences in locomotor scores between groups was analyzed by two-way analysis of variance (ANOVA) employing Bonferroni post-tests for repeated measure comparisons. A P value <0.05 was considered to be significant.

Structure (SMILES): CCNC(=O)C1OC(n2cnc3c(N)nc(C#CCC4CCC(C(=O)OC)CC4)nc32)C(O)C1O (stereo not drawn) [ATL146e, 4-{3-[6-Amino-9-(5-ethylcarbamoyl-3,4-dihydroxy-tetrahydro-furan-2-yl)-9H-purin-2-yl]-prop-2-ynyl}cyclo-hexanecarboxylic acid methyl ester]
Ki [1]: 3.3 ± 2 nM

Structure (SMILES): CCNC(=O)[C@H]1O[C@@H](n2cnc3c(N)nc(C#CCC4CCN(C(=O)OC)CC4)nc32)[C@H](O)[C@@H]1O [ATL202, 4-{3-[6-amino-9-(5-ethyl-carbamoyl-3,4-dihydroxy-tetrahydro-furan-2-yl)-9H-purin-2-yl]-prop-2-ynyl}-piperidine-1-carboxylic acid methyl ester]
Ki [2]: 1.5 ± 0.55 nM
Ki [1]: 3.7 ± 0.4 nM

Structure (SMILES): CCNC(=O)C1OC(n2cnc3c(N)nc(C#CCC4CCN(C(=O)OCC(C)C)CC4)nc32)C(O)C1O (stereo not drawn) [ATL210, 4-{3-[6-amino-9-(5-ethylcarbamoyl-3,4-dihydroxy-tetrahydro-furan-2-yl)-9H-purin-2-yl]-prop-2-ynyl}-piperidine-1-carboxylic acid isobutyl ester]
Ki [2]: 1.04 ± 0.26 nM
A3/A2A [2]: 5.2
Ki [1]: 5.4 ± 0.7 nM

Structure (SMILES): CCNC(=O)[C@H]1O[C@@H](n2cnc3c(N)nc(NCCc4ccc(CCC(=O)O)cc4)nc32)[C@H](O)[C@@H]1O [CGS21680, 2-[4-(2-carboxyethyl)phenethylamino]-5′-N-ethylcarboxamido-adenosine, reference compound]
Ki [1]: 160 ± 20 nM

The next lines start with results.

selectivity for the mouse A2A over the A3 receptor [2]: 12 fold
Ki [2]: 1.58 ± 0.48 nM
A3/A2A [2]: 12.2
Ki [1]: 19.3 ± 3.3 nM
Structure (SMILES): COC(=O)N1CCC(CC#Cc2nc(N)c3ncn(C4OC(C(=O)NC5CC5)C(O)C4O)c3n2)CC1 (stereo not drawn) [ATL313, 4-{3-[6-amino-9-(5-cyclopropylcarbamoyl-3,4-dihydroxy-tetrahydro-furan-2-yl)-9H-purin-2-yl]-prop-2-ynyl}-piperidine-1-carboxylic acid methyl ester]
affinity and selectivity for human A2A receptor over other adenosine receptor subtypes [3]: highly selective
protection of locomotor function in mice lacking A2ARs on BMDC cells ([4]; KO/WT chimera or global A2AR KO, FIGS. 5B, 6): not KO/WT chimera; also recorded: not protected; also recorded: completely absent
protection of locomotor function in WT/KO chimera ([4]; WT marrow into A2AR KO recipients, FIGS. 5C, 6, 7): greatest protection
protection of locomotor function in mice with A2ARs on BMDC cells ([4]; WT, WT/WT and WT/KO mice, FIGS. 5, 6): protects WT/WT; also recorded: protected
protection from spinal cord compression injury (mBBB) ([5]; 2 nmol/kg IP, FIG. 2A): no significant protection
protection from compression injury with delayed treatment ([5]; 3 nmol/kg IP, delay 0, 5 or 20 min after SCI, two-way ANOVA, FIG. 9): significant
locomotor protection by agonist combined with antagonist ([5]; 6 nmol/kg ATL313 with equimolar ZM241385, FIG. 2D): Early blockade; also recorded: completely blocked
protection when treatment starts just after compression (onset of reperfusion) ([5]; 6 nmol/kg IP 10-15 seconds after terminating compression, compared with start before compression, FIG. 8): reduces locomotor dysfunction; also recorded: equal protection; also recorded: same reduction in SCI
mBBB score ([5]; 6 nmol/kg, day 42 after compression, same animals as myelin analysis, vehicle 5.0±1.4, FIG. 4): 11.3±0.8
optimal dose to reduce SCI (mBBB locomotor score) ([5]; IP twice daily for 4 days during and following compression, FIG. 2A): 6 nmol/kg
reversal of protection by delay of administration ([5]; delay 20 minutes, FIG. 9 legend): partially
protection from spinal cord compression injury (mBBB) ([5]; dose increased from 6 to 20 nmol/kg IP, FIG. 2A): does not produce additional protection
locomotor function (mBBB score) after spinal cord compression ([5]; 6 nmol/kg): significant and sustained increase; also recorded: improved locomotor function at all time points
morphological manifestations of long-term spinal cord injury (H&E, EC) ([6]; 6 nmol/kg, day 42, FIG. 3): substantially reversed
spared myelin (EC-stained area, normalized to sham/uninjured) ([6]; 6 nmol/kg, day 42 after compression, vehicle 61.0%±3.6%): 81.9±0.9%
average ratio of spinal cord white area (injured/sham) ([6]; day 42, N=3-4, P<0.05, vehicle 61.3±3.6): 81.9±0.9
protection from contusive injury in Rag1 KO mice compared to Rag1 KO vehicle [7]: no evidence of additional protection

Ki [1]: 16100 nM
Structure (SMILES): Nc1nc(NCCc2ccc(O)cc2)nc2nc(-c3ccco3)nn12 [ZM241385, 4-(2-[7-Amino-2-[2-furyl][1,2,4]triazolo[2,3-a][1,3,5]triazin-5-yl-amino]ethyl)phenol, reference compound]
reduction of compressive injury with delayed antagonist treatment ([5]; 6 nol/kg IP twice daily for 4 days after delay of 1, 3, 5 or 7 days, FIG. 10): Protection is maintained; also recorded: significant compared to vehicle for all delay periods
locomotor function (mBBB score) after spinal cord compression ([5]; 6 nmol/kg): improvement in locomotor function that was similar to the effect of the agonist
protection from contusive injury in Rag1 KO mice compared to Rag1 KO vehicle [7]: did not significantly improve protection
protection from contusive injury in Rag1 KO mice compared to vehicle ([7]; Rag1 KO mice, compared to vehicle controls, P=0.0015): significant protection
